In patent publication US7109193B2, “Tricyclic diazepines tocolytic oxytocin receptor antagonists” (Wyeth, priority 2001, dated 2006):

Target: T1, human vasopressin V1a receptor subtype (Homo sapiens, UniProt P37288)
T1 construct: host or cells: CHO cells (pZeoSV vector for the Thibonnier line)
Test: Vasopressin binding in Chinese Hamster Ovary cell membranes expressing human vasopressin V1a subtype receptors
Conditions: 100 nM, CHO cell membranes, [3H]Manning ligand, values without parentheses
Procedure: Vasopressin Binding in Chinese Hamster Ovary Cell Membranes Expressing Human Vasopressin V1a Subtype Receptors
The trypsin is removed by aspiration and the cells dislodged by tapping. Cell Culture medium (e.g. 30 mL for 1:30 split) is immediately added and mixed well to inactivate trypsin. 1 mL of detached cells is added to new culture flasks containing fresh cell culture medium (e.g., into 25 mL per T-150 flask), and mixed gently. The cells are incubated at 37° C. in 5% CO2. The medium is changed at 3 to 4 days interval (or as appropriate). […] All steps are done under sterile conditions. B. Membrane Preparation: The cells are washed twice gently with Hank's Balanced Salt solution (e.g,. use 10 mL per T-150 flask). […] The contents are transferred to centrifuge tubes (50 mL) kept in an ice bath. All subsequent steps are done at 4° C. The tubes are centrifuged at 300×g for 15 min (1380 rpm on SORVAL, Model RT6000D, using the rotor for 50 mL tubes). The supernatant is discarded and the cells suspended in homogenizing buffer(10 mM Tris-HCl containing 0.25 M sucrose and 1 mM EDTA, pH 7.4) ensuring that the volume of the buffer is about ten times the volume of the cell pellet. The cells are pooled into a centrifuge tube (50 mL) and homogenized with a Polytron at setting 6 for 10 sec. The homogenate is transferred into a Potter-Elvjehm homogenizer and homogenized with 3 strokes. The homogenate is centrifuged at 1500×g for 10 min at 4° C. (3100 rpm using SORVAL, model RT6000D, using the rotor for 50 mL tubes). The pellet is discarded. The supernatant is centrifuged at 100,000×g for 60 min. at 4° C. (Beckman L8-80M ultracentrifuge; spin at 37,500 rpm with rotor type 70 Ti for 50 mL tubes; 38,000 rpm with type 80Ti for 15 mL tubes; or 35,800 rpm with rotor type 45Ti). The supernantant is discarded and the pellet suspended in 3 to 4 mL of Tris buffer (50 mM TRIS-HCl, pH 7.4). The protein content is estimated by the Bradford or Lowry method. The volume of the membrane suspension is adjusted with the membrane buffer (50 mM Tris-HCl containing 0.1% BSA and 0.1 mM PMSF) to give 3.0 mg/mL (or as appropriate) of protein. The membranes are aliquoted and stored at −70° C. C. Radioligand Binding Assay: In wells of a 96-well format microtiter plate, is added 90, 110 or 130 μL (to make up a final volume of 200 μL) of assay buffer containing 50 mM of Tris-HCl (pH 7.4), BSA (heat inactivated, protease-free), […], 1 mg % aprotinin, 1 mg % leupeptin, 2 mg % 1,10-phenanthroline, 10 mg % trypsin inhibitor, and 0.1 mM PMSF. The inhibitors are added on the day of the experiment. The components are mixed at room temperature, and then kept in ice bath following adjustment of the pH to 7.4. […] 20 μL of 50% DMSO is added for Manning and other peptide ligands and the assay buffer volume is adjusted accordingly. To each well is added 50 μL of frozen membrane suspension thawed immediately prior to use and diluted in the assay buffer to the required concentration (equivalent to 25 to 50 μg of protein/well as needed). 20 μL of 8 nM [^3H]Manning ligand in the assay buffer, prepared just before use, is added, and incubated at room temperature for 60 min. shaking the plate on a mechanical shaker for the first 15 min. The incubation is stopped by rapid filtration of the plate contents followed by wash with ice-cold buffer (50 mM Tris-HCl, pH 7.4) using a cell harvester (Tomtek and Printed filtermat-B filter paper). The filter paper is thoroughly dried (7–12 min. in a microwave oven) and impregnated with MeltiLex B/H melt-on scintillation wax sheets and the radioactivity counted in a betaplate scintillation counter.
Binding data is either reported as percent inhibition at a certain concentration or if an IC50 was calculated, as a nanomolar concentration.

T1 sequence (P37288 whole entry): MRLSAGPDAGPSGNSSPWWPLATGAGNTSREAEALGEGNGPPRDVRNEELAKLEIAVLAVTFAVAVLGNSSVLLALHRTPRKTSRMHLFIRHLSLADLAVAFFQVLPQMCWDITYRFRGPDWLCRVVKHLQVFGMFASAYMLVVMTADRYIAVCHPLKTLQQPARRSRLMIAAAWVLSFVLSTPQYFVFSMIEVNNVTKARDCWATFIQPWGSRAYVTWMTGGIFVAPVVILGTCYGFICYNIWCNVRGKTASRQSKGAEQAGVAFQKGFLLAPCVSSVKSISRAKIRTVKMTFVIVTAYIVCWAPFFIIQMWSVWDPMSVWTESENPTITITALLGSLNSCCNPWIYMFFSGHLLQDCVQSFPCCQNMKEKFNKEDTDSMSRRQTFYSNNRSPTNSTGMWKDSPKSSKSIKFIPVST

inhibition at 0.1 µM [%]	SMILES	V1a % inhibition @ 100 nM [%]
47	Cc1ccccc1-c1ccc(C(=O)N2Cc3ccc(C(=O)N4CCC(N5CCCC5)CC4)n3Cc3ccccc32)cc1C [Example 138, {10-[(2,2′-Dimethyl[1,1′-biphenyl]-4-yl)carbonyl]-10,11-dihydro-5H-pyrrolo[2,1-c][1,4]benzodiazepin-3-yl}[4-(1-pyrrolidinyl)-1-piperidinyl]methanone]	–
10	COc1cccc(-c2ccc(C(=O)N3Cc4ccc(C(=O)NCCCn5ccnc5)n4Cc4ccccc43)cc2C)c1 [Example 125, N-[3-(1H-Imidazol-1-yl)propyl]-10-[(3′-methoxy-2-methyl[1,1′-biphenyl]-4-yl)carbonyl]-10,11-dihydro-5H-pyrrolo[2,1-c][1,4]benzodiazepine-3-carboxamide]	–
3	O=C(c1ccc2n1Cc1ccccc1N(C(=O)c1ccc(-c3cccc4ccccc34)cc1Cl)C2)N1CCC(N2CCCC2)CC1 [Example 147, {10-[2-Chloro-4-(1-naphthyl)benzoyl]-10,11-dihydro-5H-pyrrolo[2,1-c][1,4]benzodiazepin-3-yl}[4-(1-pyrrolidinyl)-1-piperidinyl]methanone]	–
16	Cc1ccccc1-c1ccc(C(=O)N2Cc3ccc(C(=O)NCCCn4ccnc4)n3Cc3ccccc32)cc1 [Example 127, N-[3-(1H-Imidazol-1-yl)propyl]-10-[(2′-methyl[1,1′-biphenyl]-4-yl)carbonyl]-10,11-dihydro-5H-pyrrolo[2,1-c][1,4]benzodiazepine-3-carboxamide]	–
4	COc1cccc(-c2cc(OC)c(C(=O)N3Cc4ccc(C(=O)NCCCn5ccnc5)n4Cc4ccccc43)cc2Cl)c1 [Example 130, 10-[(6-Chloro-3,3′-dimethoxy[1,1′-biphenyl]-4-yl)carbonyl]-N-[3-(1H-imidazol-1-yl)propyl]-10,11-dihydro-5H-pyrrolo[2,1-c][1,4]benzodiazepine-3-carboxamide]	–
9	COc1cccc(-c2ccc(C(=O)N3Cc4ccc(C(=O)N5CCC(N6CCCC6)CC5)n4Cc4ccccc43)cc2C)c1 [Example 139, {10-[(3′-Methoxy-2-methyl[1,1′-biphenyl]-4-yl)carbonyl]-10,11-dihydro-5H-pyrrolo[2,1-c][1,4]benzodiazepin-3-yl}[4-(1-pyrrolidinyl)-1-piperidinyl]methanone]	–
5	O=C(NCCCn1ccnc1)c1ccc2n1Cc1ccccc1N(C(=O)c1ccc(-c3cccc4ccccc34)cc1Cl)C2 [Example 134, 10-[2-Chloro-4-(1-naphthyl)benzoyl]-N-[3-(1H-imidazol-1-yl)propyl]-10,11-dihydro-5H-pyrrolo[2,1-c][1,4]benzodiazepine-3-carboxamide]	–
-8	Cc1cc(C(=O)N2Cc3ccc(C(=O)N(CCCN(C)C)CCCN(C)C)n3Cc3ccccc32)ccc1-c1ccccc1C(F)(F)F [Example 3, 10-[(2-Methyl-2′-trifluoromethyl-[1,1′-biphenyl]-4-yl)-carbonyl]-10,11-dihydro-5H-pyrrolo[2,1-c][1,4]benzodiazepine-3-carboxylic acid bis-(3-dimethylamino-propyl)-amide]	–
45	Cc1ccccc1-c1ccc(C(=O)N2Cc3ccc(C(=O)N4CCC(N5CCCCC5)CC4)n3Cc3ccccc32)cc1C [Example 113, {10-[(2-Methyl-2′-methyl[1,1′-biphenyl]-4-yl)carbonyl]-10,11-dihydro-5H-pyrrolo[2,1-c][1,4]benzodiazepin-3-yl}[4-(1-piperidinyl)-1-piperidinyl]methanone]	–

The next lines start with the compound.

SMILES	inhibition at 0.1 µM [%]	V1a % inhibition @ 100 nM [%]
COc1cccc(-c2cc(OC)c(C(=O)N3Cc4ccc(C(=O)N5CCN(CCN6CCOCC6)CC5)n4Cc4ccccc43)cc2Cl)c1 [Example 212, {10-[(6-Chloro-3,3′-dimethoxy[1,1′-biphenyl]-4-yl)carbonyl]-10,11-dihydro-5H-pyrrolo[2,1-c][1,4]benzodiazepin-3-yl}{4-[2-(4-morpholinyl)ethyl]-1-piperazinyi}methanone]	–	35
Cc1ccccc1-c1ccc(C(=O)N2Cc3ccc(C(=O)N4CCC[C@H]4CN4CCCC4)n3Cc3ccccc32)cc1C [Example 260, {10-[(2,2′-Dimethyl[1,1′-biphenyl]-4-yl)carbonyl]-10,11-dihydro-5H-pyrrolo[2,1-c][1,4]benzodiazepin-3-yl}[(2S)-2-(1-pyrrolidinylmethyl)pyrrolidinyl]methanone]	–	55
COc1cc(-c2ccccc2C)c(Cl)cc1C(=O)N1Cc2ccc(C(=O)N3CCC[C@H]3CN3CCCC3)n2Cc2ccccc21 [Example 267, {10-[(6-Chloro-3-methoxy-2′-methyl[1,1′-biphenyl]-4-yl)carbonyl]-10,11-dihydro-5H-pyrrolo[2,1-c][1,4]benzodiazepin-3-yl}[(2S)-2-(1-pyrrolidinylmethyl)pyrrolidinyl]methanone]	–	12
COc1cc(C(=O)N2Cc3ccc(C(=O)N4CCC[C@H]4CN4CCCC4)n3Cc3ccccc32)ccc1-c1cccc2ccccc12 [Example 262, {10-[3-Methoxy-4-(1-naphthyl)benzoyl]-10,11-dihydro-5H-pyrrolo[2,1-c][1,4]benzodiazepin-3-yl}[(2S)-2-(1-pyrrolidinylmethyl)pyrrolidinyl]methanone]	–	8
Cc1cccc(N2CCN(C(=O)c3ccc4n3Cc3ccccc3N(C(=O)c3ccc(-c5ccccc5C(F)(F)F)c(C)c3)C4)CC2C)c1 (stereo not drawn) [Example 5, [3-Methyl-4-(3-methyl-phenyl)-piperazin-1-yl]-[10-(2-methyl-2′-trifluoromethyl-[1,1′-biphenyl]-4-yl)carbonyl]-10,11-dihydro-5H-pyrrolo[2,1-c][1,4]benzodiazepin-3-yl-methanone]	–	−6
COc1ccccc1-c1ccc(C(=O)N2Cc3ccc(C(=O)N4CC[C@@H](N(C)C)C4)n3Cc3ccccc32)cc1OC [Example 282, {10-[(2,2′-Dimethoxy[1,1′-biphenyl]-4-yl)carbonyl]-10,11-dihydro-5H-pyrrolo[2,1-c][1,4]benzodiazepin-3-yl][(3R)-3-(dimethylamino)pyrrolidinyl]methanone]	–	1
Cc1cc(C(=O)N2Cc3ccc(C(=O)NCCCN(C)C)n3Cc3ccccc32)ccc1-c1ccccc1C(F)(F)F [Example 84, N-[3-(Dimethylamino)propyl]-10-{[2-methyl-2′-(trifluoromethyl)[1,1′-biphenyl]-4-yl]carbonyl}-10,11-dihydro-5H-pyrrolo[2,1-c][1 .4]benzodiazepine-3-carboxamide]	–	1
COc1cccc(-c2ccc(C(=O)N3Cc4ccc(C(=O)N5CC[C@@H](N(C)C)C5)n4Cc4ccccc43)cc2OC)c1 [Example 283, {10-[(2,3′-Dimethoxy[1,1′-biphenyl]-4-yl)carbonyl]-10,11-dihydro-5H-pyrrolo[2,1-c][1,4]benzodiazepin-3-yl}[(3R)-3-(dimethylamino)pyrrolidinyl]methanone]	–	40
Cc1ccccc1-c1ccc(C(=O)N2Cc3ccc(C(=O)N4CC[C@@H](N(C)C)C4)n3Cc3ccccc32)cc1 [Example 280, [(3R)-3-(Dimethylamino)pyrrolidinyl]{10-[(2′-methyl[1,1′-biphenyl]-4-yl)carbonyl]-10,11-dihydro-5H-pyrrolo[2,1-c][1,4]benzodiazepin-3-yl}methanone]	–	77
